These are literature values, as cited in the CATMoS acute toxicity set (Mansouri et al. 2021).

Several values for one entry are separate records, joined by “and”; a condition that tells them apart may be missing. Identical values can stand only once.

As usually defined, the LD50 is the dose expected to kill half of the subjects tested.

This data set in a line: rat acute oral toxicity. Particulars: in vivo. From the text: […]The data set underlying the modeling effort for this project was initially compiled by NICEATM and U.S. EPA’s CCTE. Briefly, LD50 data were collected from rat acute oral systemic toxicity tests, including limit tests, ranges/confidence intervals, and discrete LD50 values. The full data set included 21,200 LD50 entries for 15,688 substances. […] Data were reviewed to ensure that LD50 values with obvious errors in the extracted data such as unit conversion errors (e.g., comma and decimal separator misplacements) were either fixed or removed. After this review, 16,209 LD50 values remained. Many of the chemicals represented had multiple LD50 entries, requiring that a single representative value per Chemical Abstracts Service Registry Number (CASRN) identifier be defined to facilitate modeling efforts. Based on ATWG feedback and to define the representative LD50 as a protective value while accounting for the distribution across multiple LD50s, the median of the lowest quartile was computed using only discrete LD50 values (omitting limit test data and range and confidence interval data). A detailed summary of the data compilation is available online on the NICEATM webpage dedicated to the collaborative modeling project (NTP 2020).
[…][…] For categorical designations, limit test and range/confidence interval LD50 data were integrated wherever possible. As such, the number of chemicals with end point values/calls varies across the modeling end points (Table 3) based on whether chemicals had representative LD50 values and/or other data. If a chemical had both, the representative value was used to determine categorical calls rather than limit test data. Some data were useable only for certain end points and categories depending on the thresholds. For example, ranges that spanned multiple hazard categories were considered only for the binary (very toxic/nontoxic) end points and omitted from rendering a determination for hazard category assignment.
[…]The final data set comprising 11,992 chemicals was split into training and evaluation sets […], respectively. This process was performed semirandomly by ordering chemicals based on the five end points (categorical and continuous LD50 values) and partitioning every fourth record into the evaluation set accordingly. This approach was taken to ensure an equivalent distribution of the LD50 values and the different hazard categories between the training and the evaluation sets without supervised sampling of the chemicals based on structures (Figure 1A). The sources of the chemical structures were also kept equivalent between the two sets, with chemical structures obtained from DSSTox, being the highest quality, representing over 75% of each set (Figure 1B).
For `CCCOc1ccc(Cl)cc1C(CN(C)C)C(C)CC` (configuration not stated), the LD50 is 561 mg/kg.
On to `N#CCCN(CCN)CCN`, for which the median lethal dose (LD50) is 4550 mg/kg.
For the compound `COc1cc(C(=O)Oc2c(CCC(C)=O)c(=O)n(-c3ccccc3)n2-c2ccccc2)cc(OC)c1OC`, the LD50 is 3000 mg/kg.
Turning to `COCNC(=O)CSP(=S)(OC)OC`, the LD50 was 600 mg/kg.
As for `CC(C)N(N=O)C(C)C`, the LD50 is 850 mg/kg.
In the case of `CCCCCC/C=C/C1CC(=O)OC1=O` (configuration not stated), the LD50 was 1100 mg/kg.
With `OCC1CC2CC1C1CCC(CO)C21` (configuration not stated), the LD50 is 2250 mg/kg.
Take `COc1cc([C@@H]2c3cc4c(cc3[C@H](O[C@@H]3O[C@@H]5COC(c6ccccc6)O[C@H]5[C@H](O)[C@H]3O)[C@H]3COC(=O)[C@H]23)OCO4)cc(OC)c1OC` (some centres not stated): the LD50 is 823 mg/kg.
Regarding `c1cc2c(cc1C1CO1)O2` (configuration not stated), the 50% lethal dose (LD50) was 2830 mg/kg.
Consider `C=CC(=O)NC`, for which the LD50 is 476 mg/kg.
Take `O=c1ncc2[nH]cnc2[nH]1`: the LD50 was 1040 mg/kg.
Turning to `CCC(C)S` (configuration not stated), the LD50 was 5180 mg/kg.
In the case of `CCCCCCCCCCCCOC(=O)c1ccccc1`, the LD50 was 34500 mg/kg.
In the case of `CCOC(=O)c1ccccc1`, the LD50 was 2100 mg/kg.
Consider `C=CCOC(=O)Nc1ccc(NCc2ccc(F)cc2)nc1N`, for which the LD50 is 1030 mg/kg.
As to `Cc1cc[nH]n1`, the LD50 was 710 mg/kg.
On to `CCOP(=S)(OCC)SC(CBr)N1C(=O)c2ccccc2C1=O` (configuration not stated), for which the LD50 is 18 mg/kg.
With `CCCCCCCCCCCCCCCCCC1=NCCN1`, the LD50 was 3170 mg/kg and 4600 mg/kg and 1970 mg/kg.
On to `Clc1cccc(C2CCCCC2)c1Cl`, for which the LD50 was 4750 mg/kg.
Consider `CN1CCCCC1CCN1c2ccccc2Sc2ccc(Cl)cc21` (configuration not stated), for which the LD50 was 1200 mg/kg.
`CCCCNC(=O)c1ccccc1`: the LD50 is 5140 mg/kg.
`CC(CC(=O)O)CC(C)(C)C` (configuration not stated): the LD50 is 1160 mg/kg.
Turning to `CNc1snc2ccccc12`, the LD50 is 400 mg/kg.
Consider `C[C@H](Oc1ccc(Oc2nc3ccc(Cl)cc3o2)cc1)C(=O)O`, for which the LD50 is 2090 mg/kg.
In the case of `CCc1cc(C(N)=S)ccn1`, the LD50 is 1320 mg/kg.
As for `CCCCCCCCCc1ccc(C)cc1O`, the LD50 is 4000 mg/kg.
In the case of `c1ccc2c3c([nH]c2c1)CCCC3`, the median lethal dose (LD50) was 2650 mg/kg.
Turning to `N#Cc1ccc([N+](=O)[O-])cc1C#N`, the LD50 was 850 mg/kg.
On to `CC(C)c1cccc(OC(=O)N(C)C)c1`, for which the LD50 is 160 mg/kg.
As for `CCOC(=O)c1ccccc1S(=O)(=O)NC(=O)Nc1nc(Cl)cc(OC)n1`, the LD50 was 4100 mg/kg.
As to `CCOP(=S)(OCC)OP(=S)(OCC)OCC`, the LD50 was 5 mg/kg.
Turning to `NC(=S)Nc1cc(Cl)ccc1Cl`, the LD50 is 300 mg/kg.
On to `CCCN(CCC)c1c([N+](=O)[O-])cc(C(F)(F)F)c(N)c1[N+](=O)[O-]`, for which the LD50 was 15400 mg/kg.
For the compound `CCCCCCC(C)P(=O)(C(C)CCCCCC)C(C)CCCCCC` (configuration not stated), the LD50 was 7270 mg/kg.
On to `CC(C(c1ccc(Cl)cc1)c1ccc(Cl)cc1)[N+](=O)[O-]` (configuration not stated), for which the LD50 was 750 mg/kg.
As for `CCOP(=S)(OCC)SCCC(F)=C(F)F`, the LD50 was 681 mg/kg.
Consider `CC1(C)C(C=C(Br)Br)C1C(=O)OC(C#N)c1cccc(Oc2ccccc2)c1` (configuration not stated), for which the LD50 was 80 mg/kg.
Take `CCC(C)(C)OC(=O)Nc1ccco1`: the LD50 is 190 mg/kg.
As to `CCCCN(N=O)C(=O)OCC`, the LD50 was 900 mg/kg.
As for `C=CCOC(=O)CCC1CCCCC1`, the LD50 was 585 mg/kg.
As to `CCCCOCCOCCOCOCCOCCOCCCC`, the LD50 is 1750 mg/kg.
Consider `CCCCOC(=O)N(C)SN(C)C(=O)Oc1cccc2c1OC(C)(C)C2`, for which the LD50 is 53 mg/kg.
Take `COc1ccc(-c2cc(N)c3c(c2O)C(=O)c2c(N)ccc(O)c2C3=O)cc1`: the LD50 was 6380 mg/kg.
Regarding `Clc1cccc2c1Oc1c(Cl)c(Cl)c(Cl)c(Cl)c1O2`, the 50% lethal dose (LD50) is 0.206 mg/kg.
As for `O=C1NC(=O)C(c2ccccc2)(c2ccccc2)N1S(=O)(=O)c1ccccc1`, the median lethal dose (LD50) is 1700 mg/kg.
For `NCCN1CCNCC1`, the LD50 is 2140 mg/kg.
In the case of `Cc1ccccc1OCC(O)CN(NC=NC(=O)c1ccccc1)C(C)C` (configuration not stated), the LD50 is 2930 mg/kg.
Consider `CC(C)CNCC(C)C`, for which the LD50 was 258 mg/kg.
For the compound `C=CC(=O)OCC(=O)OCC`, the 50% lethal dose (LD50) is 215 mg/kg.
In the case of `CC=CC(C)=O`, the LD50 was 3200 mg/kg.
For the compound `C=CCc1ccc(OC=O)c(OC)c1`, the LD50 was 3400 mg/kg.
Consider `CN1CCN(C2=Cc3ccccc3Sc3ccc(Cl)cc32)CC1`, for which the LD50 was 115 mg/kg.
